Results from PMC7251097, “Aspartate/asparagine-β-hydroxylase: a high-throughput mass spectrometric assay for discovery of small molecule inhibitors” (Scientific Reports, 2020).
“And” between values parts separate entries of the source, which are not always exact repeats. Equal values may be shown once. Where a name gives a salt, the structure may show the parent alone. Read-outs that look alike come from different tables or passages of the source.

Biological target: T1, His6-AspH315–758 (human aspartate/asparagine-β-hydroxylase, AspH) (Homo sapiens, UniProt Q12797)
T1 construct: N-Terminally His6-tagged human AspH315–758 (His6-AspH315–758) was produced in E. coli BL21 (DE3) cells; made in house; host or cells: E. coli BL21 (DE3), pET-28a(+) vector
T1 sequence (Q12797 315-758): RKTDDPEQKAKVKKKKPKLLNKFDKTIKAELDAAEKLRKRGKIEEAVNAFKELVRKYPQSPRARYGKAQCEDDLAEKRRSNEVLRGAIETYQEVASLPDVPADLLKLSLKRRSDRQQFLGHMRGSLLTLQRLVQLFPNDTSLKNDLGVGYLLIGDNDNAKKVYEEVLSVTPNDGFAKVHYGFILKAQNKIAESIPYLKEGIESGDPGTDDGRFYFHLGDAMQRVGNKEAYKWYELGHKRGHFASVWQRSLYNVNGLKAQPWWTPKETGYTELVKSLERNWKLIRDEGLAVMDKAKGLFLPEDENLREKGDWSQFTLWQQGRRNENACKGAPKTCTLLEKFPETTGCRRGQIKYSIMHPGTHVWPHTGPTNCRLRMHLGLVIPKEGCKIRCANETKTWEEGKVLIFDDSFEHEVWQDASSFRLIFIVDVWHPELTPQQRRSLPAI
Experiment: SPE-MS AspH inhibition assay (LOPAC screen at fixed 20 μM and IC50 dose-response), hydroxylation of cyclic peptide hFX-CP101–119
Format: biochemical
Settings: for inhibition at 20 µM: read-out: Plate 2 (% inhibition); for Plate 5 (% inhibition) / Plate 5 (% conversion): plate 5 (Pfitzer), test compounds at fixed 20 μM; for Plate 5 (% conversion): mean conversion DMSO 32.88; for IC50: read-out: IC50

[1] = LOPAC compound at fixed 20 uM, plate 1, normalised to DMSO and 2,4-PDCA controls
[2] = LOPAC compound at fixed 20 uM, substrate conversion, plate 1
[3] = LOPAC compound at 20uM, plate 2, conversion of substrate peptide
[4] = LOPAC compound at 20uM, plate 2, normalised to DMSO and 2,4-PDCA controls
[5] = LOPAC Plate 4, compound at 20 uM, substrate conversion
[6] = 50 nM His6-AspH315–758, 1.0 μM hFX-CP101–119, 3 μM 2OG, 2 μM Fe(II), 50 mM HEPES pH 7.5, 20 °C, mean ± SD, n = 2 (2,4-PDCA n = 10)
[7] = LOPAC compound at 20uM, plate 3, conversion of substrate peptide

## C[C@]12CC[C@@H]3c4ccc(O)cc4C[C@@H](CCCCCCCCC[S+]([O-])CCCC(F)(F)C(F)(F)F)[C@H]3[C@@H]1CC[C@@H]2O (some centres unmarked) [Fulvestrant]
[1]
  Plate 1 (% inhibition): 12.89%
[2]
  Plate 1 (% conversion): 31.54%

## Cc1nc2c([nH]1)c(=O)n(C)c(=O)n2Cc1ccco1 [Furafylline]
[3]
  Plate 2 (% conversion): 36.33%
[4]
  inhibition at 20 µM: -1.12%

## O=C([O-])c1cc2cc(Cc3cccnc3)ccc2o1.[Na+] [Furegrelate sodium]
[3]
  Plate 2 (% conversion): 36.88%
[4]
  Plate 2 (% inhibition): -2.76%

## NS(=O)(=O)c1cc(C(=O)O)c(NCc2ccco2)cc1Cl [Furosemide]
[4]
  inhibition at 20 µM: 2.67%

## CCCCc1ccc(C(=O)O)nc1 [Fusaric acid]
  Plate 2 (% conversion): 28.15%
  inhibition at 20 µM: 23.3%

## CC(=O)O[C@H]1C[C@@]2(C)[C@@H](C[C@@H](O)[C@H]3[C@@]4(C)CC[C@@H](O)[C@@H](C)[C@@H]4CC[C@@]32C)/C1=C(\CCC=C(C)C)C(=O)[O-].[Na+] [Fusidic acid sodium]
[3]
  Plate 2 (% conversion): 40.54%
[4]
  Plate 2 (% inhibition): -13.68%

## NCCCC(=O)O [GABA]
[1]
  Plate 1 (% inhibition): -1.98%
[2]
  Plate 1 (% conversion): 36.54%

## CN(C)c1ccccc1CN1CCCN(Cc2ccccc2N(C)C)C1c1ccncc1 [GANT61]
LOPAC Plate 4, compound at 20 uM
  % inhibition: -13.34%
[5]
  % conversion: 41.02%

## Cl.Cl.Fc1ccc(C(OCCN2CCN(CCCc3ccccc3)CC2)c2ccc(F)cc2)cc1 [GBR-12909 dihydrochloride]
[3]
  Plate 2 (% conversion): 51.05%
[4]
  Plate 2 (% inhibition): -45.09%

## Cl.Cl.c1ccc(CCCN2CCN(CCOC(c3ccccc3)c3ccccc3)CC2)cc1 [GBR-12935 dihydrochloride]
  Plate 2 (% conversion): 46.64%
20 µM
  Plate 2 (% inhibition): -31.91%

## NC(N)=Nc1ccc2[nH]c3c(c2c1)C[C@@]1(O)[C@H]2Cc4ccc(O)c5c4[C@@]1(CCN2CC1CC1)[C@H]3O5.O=C(O)C(F)(F)F.O=C(O)C(F)(F)F [GNTI, Guanidinyl-naltrindole di-trifluoroacetate, reference compound]
  Plate 2 (% conversion): 1.92%
20 µM
  Inhibition at 20 µM [%]: 100% and 101.7%
pH 7.5
  IC50 [μM]: inactive

## Br.Br.CN(C)CCCc1cc(C(=O)Nc2ccc(-c3ccncc3)cc2)ccc1O [GR 55562 dihydrobromide]
[3]
  Plate 2 (% conversion): 31.31%
[4]
  Plate 2 (% inhibition): 13.87%

## OC[C@H]1O[C@@H](n2cnc3c(N[C@H]4CCC[C@@H]4O)ncnc32)[C@H](O)[C@@H]1O [GR 79236X]
[1]
  Plate 1 (% inhibition): -7.17%
[2]
  Plate 1 (% conversion): 38.28%

## Cn1cc(C(=O)OCC2CCN(CCNS(C)(=O)=O)CC2)c2ccccc21 [GR 113808]
[1]
  Plate 1 (% inhibition): -5.71%
[2]
  Plate 1 (% conversion): 37.79%

## O=S(=O)(N[C@H](CO)C(C(F)(F)F)C(F)(F)F)c1ccc(Cl)s1 [GSI-953]
  Plate 5 (% inhibition): 5.55%
  Plate 5 (% conversion): 34.43%

## O=C(O)CCNc1cc(N2CCc3ccccc3CC2)nc(-c2ccccn2)n1 [GSK-J1, reference compound]
[6]
  IC50: 12.9 ± 1.05 µM

## CCOC(=O)CCNc1cc(N2CCc3ccccc3CC2)nc(-c2ccccn2)n1 [GSK-J4, reference compound]
[6]
  IC50 [μM]: inactive

## O=C1Nc2ccc(I)cc2/C1=C/c1cc(Br)c(O)c(Br)c1 [GW5074, reference compound]
  Inhibition at 20 µM [%]: 101.1%
pH 7.5
  IC50: 2.48 ± 0.14 µM

## CC(C)(Sc1ccc(CCN(CCCCC2CCCCC2)C(=O)NC2CCCCC2)cc1)C(=O)O [GW7647]
[3]
  Plate 2 (% conversion): 29.96%
[4]
  inhibition at 20 µM: 17.9%

## O=C(O)CCc1ccc(NCc2cccc(Oc3ccccc3)c2)cc1 [GW9508]
[3]
  Plate 2 (% conversion): 35.17%
[4]
  inhibition at 20 µM: 2.34%

## CC1=NN=C(c2ccc(N)cc2)c2cc3c(cc2C1)OCO3.Cl [GYKI 52466 hydrochloride]
  Plate 2 (% conversion): 38.91%
[4]
  Plate 2 (% inhibition): -8.84%

## Cl.NC1C=CC=C(C(=O)O)C1 (centres unmarked) [Gabaculine hydrochloride]
  Plate 1 (% conversion): 33.90%
  Plate 1 (% inhibition): 5.88%

## CC[N+](CC)(CC)CCOc1cccc(OCC[N+](CC)(CC)CC)c1OCC[N+](CC)(CC)CC [Gallamine triethiodide]
[3]
  Plate 2 (% conversion): 33.88%
[4]
  inhibition at 20 µM: 6.21%

## CC(=O)[C@H]1CC[C@H]2[C@@H]3CC[C@H]4C[C@](C)(O)CC[C@]4(C)[C@H]3CC[C@]12C [Ganaxolone]
  Plate 2 (% conversion): 36.34%
  inhibition at 20 µM: -1.16%

## Nc1nc(O)c2ncn(COC(CO)CO)c2n1 [Ganciclovir]
[3]
  Plate 2 (% conversion): 35.57%
[4]
  inhibition at 20 µM: 1.14%

## Nc1ccn([C@@H]2O[C@H](CO)[C@@H](O)C2(F)F)c(=O)n1 [Gemcitabine hydrochloride]
[1]
  Plate 1 (% inhibition): 11.04%
[2]
  Plate 1 (% conversion): 32.17%

## COC(=O)C1=CO[C@@H](O)[C@@H]2C(CO)=CC[C@H]12 [Genipin]
[3]
  Plate 2 (% conversion): 36.58%
[4]
  inhibition at 20 µM: -1.85%

## O=c1c(-c2ccc(O)cc2)coc2cc(O)cc(O)c12 [Genistein]
[3]
  Plate 2 (% conversion): 19.78%
[4]
  inhibition at 20 µM: 48.3%

## CCOc1ncc(S(=O)(=O)N2CCN(CC)CC2)cc1-c1nc2c(CC)n(CCOC)nc2c(=O)[nH]1.O=S(=O)(O)c1ccccc1 [Gisadenafil besylate salt]
  Plate 1 (% conversion): 43.96%
  Plate 1 (% inhibition): -24.07%

## CCOc1ncc(S(=O)(=O)N2CCN(CC)CC2)cc1-c1nc2c(CC)n(CCOC)nc2c(=O)[nH]1 [Gisadenafil]
  Plate 5 (% inhibition): 10.85%
  Plate 5 (% conversion): 32.62%

## Cc1cnc(C(=O)NCCc2ccc(S(=O)(=O)NC(=O)NC3CCCCC3)cc2)cn1 [Glipizide]
[4]
  inhibition at 20 µM: -8.88%

## Cc1cc2c(C(C)C)c(O)c(O)c(C=O)c2c(O)c1-c1c(C)cc2c(C(C)C)c(O)c(O)c(C=O)c2c1O [Gossypol]
  Plate 3 (% conversion): 4.73%

## CN1C2CCCC1CC(NC(=O)c1nn(C)c3ccccc13)C2 (centres unmarked) [Granisetron hydrochloride]
[5]
  % conversion: 34.30%

## N=C(N)N/N=C/c1c(Cl)cccc1Cl [Guanabenz acetate]
[3]
  Plate 2 (% conversion): 34.67%
[4]
  inhibition at 20 µM: 3.85%

## CNCCNS(=O)(=O)c1cccc2cnccc12.Cl.Cl [H-8 dihydrochloride]
[7]
  Plate 3 (% conversion): 37.53%

## CCCCC#Cc1nc(NC)c2ncn([C@@H]3O[C@H](CO)[C@@H](O)[C@H]3O)c2n1 [HEMADO]
[1]
  Plate 1 (% inhibition): 20.82%
[2]
  Plate 1 (% conversion): 28.88%

## Cc1nccc2c1[nH]c1ccccc12 [Harmane]
  Plate 2 (% conversion): 35.31%
  inhibition at 20 µM: 1.92%

## C[N+](C)(C)CCCCCC[N+](C)(C)C [Hexamethonium bromide]
  Plate 2 (% conversion): 40.56%
  inhibition at 20 µM: -13.8%

## C[N+](C)(C)CCCCCC[N+](C)(C)C.[Cl-].[Cl-] [Hexamethonium dichloride]
  Plate 2 (% conversion): 37.53%
20 µM
  Plate 2 (% inhibition): -4.72%

## O=c1cc(O)cc(/C=C/c2ccc(O)c(O)c2)o1 [Hispidin, reference compound]
[3]
  Plate 2 (% conversion): 3.05%
[4]
  inhibition at 20 µM: 98.3%

## NCCc1c[nH]cn1 [Histamine dihydrochloride]
[3]
  Plate 2 (% conversion): 39.28%
[4]
  inhibition at 20 µM: -9.92%

## NNc1nncc2ccccc12 [Hydralazine hydrochloride]
[3]
  Plate 2 (% conversion): 38.20%
[4]
  inhibition at 20 µM: -6.7%

## NS(=O)(=O)c1cc2c(cc1Cl)NCNS2(=O)=O [Hydrochlorothiazide]
[3]
  Plate 2 (% conversion): 36.43%
[4]
  inhibition at 20 µM: -1.41%

## C[C@]12CCC(=O)C=C1CC[C@@H]1[C@@H]2[C@@H](O)C[C@@]2(C)[C@H]1CC[C@]2(O)C(=O)CO [Hydrocortisone]
[3]
  Plate 2 (% conversion): 37.93%
[4]
  inhibition at 20 µM: -5.89%

## Cl.NO [Hydroxylamine hydrochloride]
[3]
  Plate 2 (% conversion): 39.20%
[4]
  Plate 2 (% inhibition): -9.70%

## NC(=O)NO [Hydroxyurea]
[3]
  Plate 2 (% conversion): 37.94%
[4]
  Plate 2 (% inhibition): -5.92%

## CNC(=O)[C@H]1O[C@@H](n2cnc3c(NCc4cccc(I)c4)ncnc32)[C@H](O)[C@@H]1O [IB-MECA]
[7]
  Plate 3 (% conversion): 35.04%

## COc1cc(OC)c(C=C2C(O)=Nc3ccccc32)c(OC)c1 [IC 261]
  % conversion: 29.42%

## CCCn1c(=O)c(C)cn2nc(N)nc12 [ICI 63,137]
  % conversion: 30.53%

## Cl.Fc1ccc(CN(C2=NCCN2)c2c(Cl)cccc2Cl)cc1 [IMID-4F hydrochloride]
[3]
  Plate 2 (% conversion): 39.35%
[4]
  Plate 2 (% inhibition): -10.13%

## COc1ccc(/C=C2\COc3ccc(C)cc3C2=O)cc1O [IMS2186]
[5]
  % conversion: 32.74%
